The experiment relates to PANC04.03 human pancreatic cancer cells with KRAS^G12D mutation. In words: PANC04.03 3D CTG experiment (anti-proliferation). The following applies: Panc 04.03, 168 h, 7 days incubation. Type of experiment: cell-based. The source says: This experiment aims to verify the inhibitory effect of the compounds of the present disclosure on the proliferation of PANC04.03 human pancreatic cancer cells with KRAS^G12D mutation.
Cell line PANC04.03 and RPMI-1640 medium were purchased from GIBCO, FBS was purchased from Hyclone, and human insulin was purchased from Yeasen. The 96-well plate was purchased from Ultra Low Cluster, CellTiter-Glo® 3D Cell Viability Assay reagents (chemiluminescent 3D cell viability assay reagents) were purchased from Promega, and 2104 En Vision plate reader was purchased from PerkinElmer.
PANC04.03 cells were cultured in an incubator at 37° C. with 5% CO2 under the conditions of RPMI-1640+15% FBS+5 µg/mL human insulin. Regular passaging was performed, and cells in the logarithmic growth phase were selected for plating. PANC04.03 cells were seeded in a 96-well U-bottom cell culture plate, and each well of 135 μL cell suspension contained 2000 PANC04.03 cells. The culture plate was cultured overnight in a 37° C., 5% CO2 incubator with 100% relative humidity. The test compound was diluted 5-fold to the eighth concentration using a pipette, ranging from 200 μM to 2.56 nM, and tested in duplicate. 78 μL of culture medium per well was added to an intermediate plate. […] A multimode microplate reader was used for reading. […]

SMILES strings stand for the structures.

As usually defined, the IC50 is the concentration at which inhibition is half-maximal. Lower therefore signals greater potency. On to `C#Cc1c(F)ccc2cc(N)cc(-c3ncc4c(N5CC6CCC(C5)N6)nc(OC[C@@]56CC(=C)CN5C[C@@H]5C[C@@H]56)nc4c3F)c12` (single isomer, unassigned) [Compound 3], for which the IC50 came to 0.0342 µM. This counts as double-digit nanomolar.

The record behind these values is patent US20260015364A1, “PIPERAZINE BRIDGE-SUBSTITUTED HETEROCYCLIC PYRIMIDINE COMPOUND” (MEDSHINE DISCOVERY INC., priority 2022, published 2026).
